pIC50: −log10 of the molar value.
Molecular target: JAK2 (Homo sapiens, UniProt O60674)
Experiment: AlphaScreen SureFire p-STAT5 (p-Tyr694/699)-EPO-JAK2 cell-based assay (UT-7 cells)
Design: purchased Invitrogen
Details: EPO 45 ng/mL, n=5, read-out: IC50, EPO-stimulated pSTAT5 JAK2 cell-based assay
Description: AlphaScreen SureFire Protocol p-STAT5 (p-Tyr694/699)-EPO-JAK2 Cell-Based Assay
The fold selectivity of test compounds for JAK1 over JAK2 is determined by a cellular assay, in which EPO is used to activate JAK2-STAT5 pathway, and pSTAT5 is used as the readout.
Starve UT-7 cells overnight in DMEM medium with 0.5% […] (FBS) and 1× Pen/Strep at 37° C. (without GM-CSF). Plate 50000 cells per well in BD 96 well black plates with clear bottoms (in medium without FBS and GM-CSF). Maintain the plates at RT for 30-60 minutes before incubating overnight at 37° C. and 5% CO2. Count cells using Vi-Cell counter, use a cell suspension at 500000 cells/mL and plated 100 μL/well in […] Biocoat plates Catalog #354640. […]
Follow the following steps sequentially: make acceptor mix (activation buffer/reaction buffer/acceptor beads); transfer 4 μL lysate from 96 well plates to 384 well-Proxiplate; add 5 μL acceptor mix to 384 proxiplate plate(s) with multidrop combi; seal plates with aluminum seal; shake 1-2 minutes on plate shaker; incubate plate at RT for 2 hr with gentle shaking; make donor mix (donor beads in dilution buffer); add 2 μl donor mix to assay plates with multidrop combi; seal plates with aluminum seal; shake 1-2 minutes on plate shaker; incubate at RT for 2 hr with gentle shaking; read plate with Envision; protocol AlphaScreen Surefire 384.

Sequence of JAK2 (O60674 whole entry): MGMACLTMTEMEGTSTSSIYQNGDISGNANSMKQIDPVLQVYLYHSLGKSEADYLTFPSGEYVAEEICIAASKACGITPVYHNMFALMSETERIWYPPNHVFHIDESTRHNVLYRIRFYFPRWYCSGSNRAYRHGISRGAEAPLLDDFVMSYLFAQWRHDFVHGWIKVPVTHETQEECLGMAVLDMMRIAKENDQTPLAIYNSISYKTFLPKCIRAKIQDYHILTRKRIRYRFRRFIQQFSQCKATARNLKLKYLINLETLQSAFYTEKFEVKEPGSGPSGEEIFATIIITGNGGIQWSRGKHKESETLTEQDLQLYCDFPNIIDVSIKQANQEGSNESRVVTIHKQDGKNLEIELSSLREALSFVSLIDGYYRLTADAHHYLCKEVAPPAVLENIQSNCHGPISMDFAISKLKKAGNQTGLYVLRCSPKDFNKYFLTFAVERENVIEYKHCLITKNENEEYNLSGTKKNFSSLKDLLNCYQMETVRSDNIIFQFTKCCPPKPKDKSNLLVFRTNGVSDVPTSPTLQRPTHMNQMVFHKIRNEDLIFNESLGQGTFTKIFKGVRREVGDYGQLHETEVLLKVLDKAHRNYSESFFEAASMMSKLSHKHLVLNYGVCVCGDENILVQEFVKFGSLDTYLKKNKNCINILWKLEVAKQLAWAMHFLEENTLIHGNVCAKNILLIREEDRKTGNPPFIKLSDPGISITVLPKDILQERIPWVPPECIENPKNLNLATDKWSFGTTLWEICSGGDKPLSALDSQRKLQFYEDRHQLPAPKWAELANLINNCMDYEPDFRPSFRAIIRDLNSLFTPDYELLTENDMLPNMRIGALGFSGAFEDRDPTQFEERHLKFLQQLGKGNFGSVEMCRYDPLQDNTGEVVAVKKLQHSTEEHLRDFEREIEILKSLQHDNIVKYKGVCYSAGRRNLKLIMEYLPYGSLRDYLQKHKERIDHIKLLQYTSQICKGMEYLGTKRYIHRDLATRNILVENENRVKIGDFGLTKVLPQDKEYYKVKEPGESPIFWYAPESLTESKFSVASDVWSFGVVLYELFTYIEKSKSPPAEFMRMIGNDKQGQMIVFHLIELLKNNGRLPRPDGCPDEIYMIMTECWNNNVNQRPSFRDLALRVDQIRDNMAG

pIC50: 4.93
SMILES: Cc1cc(Nc2cc(O[C@H]3CC[C@@H](NC[C@@H](O)C(F)(F)F)CC3)cc3c2ncn3C)nn1C [Example 1, (2R)-3-{[cis-4-({4-[(1,5-Dimethyl-1H-pyrazol-3-yl)amino]-1-methyl-1H-benzimidazol-6-yl}oxy)cyclohexyl]amino}-1,1,1-trifluoropropan-2-ol]
